The text below walks through data of patent US20080255060A1, “Ester Linked Macrolides Useful For The Treatment of Microbial Infections” (priority 2004, published 2008).

Some results are limits rather than exact numbers.

Holding throughout (experiment): MIC, standard microtiter broth serial dilution test
Holding throughout (assay type): cell-based

Test [1] concerns S. aureus Smith ATCC 0329. Particulars: Staphylococcus aureus, ATCC0329.
For another test, the system named is S. pneumoniae 0541. The following applies: Streptococcus pneumoniae.
A further test relates to S. pyogenes 0542. Particulars: Streptococcus pyogenes.
For the next test, the system named is E. faecalis ATCC 0004. The following applies: Enterococcus faecalis, ATCC0004.
The next test deals with H. influenzae ATCC 0529. Particulars: Haemophilus influenzae, ATCC0529.
The test system of another test is M. catarrhalis ATCC 0324. Particulars: Moraxella catarrhalis, ATCC0324.

For `CC[C@H]1OC(=O)[C@H](C)[C@@H](O[C@H]2C[C@@](C)(OC)[C@@H](OC(=O)CCOCCOCCNc3cc4c(=O)c(C(=O)O)cn(C5CC5)c4cc3Cl)[C@H](C)O2)[C@H](C)[C@@H](O[C@@H]2O[C@H](C)C[C@H](N(C)C)[C@H]2O)[C@](C)(OC)C[C@@H](C)C(=O)[C@H](C)[C@@H](O)[C@]1(C)O` [Example 7, 4″-O-(3-{2-[2-(3-Carboxy-7-chloro-1-cyclopropyl-4-oxo-1,4-dihydro-quinolin-6-ylamino)-ethoxy]-ethoxy}-propionyl)-6-O-methyl-erythromycin A], the MIC (in test [1]; with S. pneumoniae 0541; in the test on S. pyogenes 0542; against E. faecalis ATCC 0004) was not above 1 µg/mL each time.

As to `CC[C@H]1OC(=O)[C@H](C)[C@@H](OC2C[C@@](C)(OC)[C@@H](OC(=O)CCNCCOCC#Cc3ccc4c(c3)c(=O)c(C(=O)O)cn4CC)[C@H](C)O2)[C@H](C)[C@@H](OC2O[C@H](C)C[C@H](N(C)C)[C@H]2O)[C@](C)(O)C[C@@H](C)CN(C)[C@H](C)[C@@H](OC)[C@]1(C)O` (some centres unmarked) [Example 23, 11-O-Methyl-4″-O-(3-{2-[3-(3-Carboxy-1-ethyl-4-oxo-1,4-dihydro-quinolin-6-yl)-prop-2-ynyloxy]-ethylamino}-propionyl)-azithromycin], the MIC in test [1] was not above 1 µg/mL; in the test on S. pneumoniae 0541, not above 1 µg/mL; in the test with S. pyogenes 0542, not above 1 µg/mL; in the test with E. faecalis ATCC 0004, not above 1 µg/mL; against H. influenzae ATCC 0529 it was not above 2 µg/mL; in the test on M. catarrhalis ATCC 0324, not above 2 µg/mL.

With `CC[C@H]1OC(=O)[C@H](C)[C@@H](OC2C[C@@](C)(OC)[C@@H](OC(=O)CCOCCOCCOc3ccc4c(=O)c(C(=O)O)cn(C5CC5)c4c3)[C@H](C)O2)[C@H](C)[C@@H](OC2O[C@H](C)C[C@H](N(C)C)[C@H]2O)[C@](C)(O)C[C@@H](C)CN(C)[C@H](C)[C@@H](O)[C@]1(C)O` (some centres unmarked) [Example 35, 4″-O-(3-{2-[2-(3-Carboxy-1-cyclopropyl-4-oxo-1,4-dihydro-quinolin-7-yloxy)-ethoxy]-ethoxy}-propionyl)-azithromycin], the MIC in test [1] was not above 1 µg/mL; in the test with S. pneumoniae 0541 it was not above 1 µg/mL; against S. pyogenes 0542, not above 1 µg/mL; with E. faecalis ATCC 0004 it was not above 1 µg/mL; in the test on H. influenzae ATCC 0529, not above 2 µg/mL; in the test on M. catarrhalis ATCC 0324, not above 2 µg/mL.

With `CC[C@H]1OC(=O)[C@H](C)[C@@H](OC2C[C@@](C)(OC)[C@@H](OC(=O)CCOCCOCCOc3ccc4c(=O)c(C(=O)O)cn(C5CC5)c4c3)[C@H](C)O2)[C@H](C)[C@@H](O[C@@H]2O[C@H](C)C[C@H](N(C)C)[C@H]2O)[C@](C)(OC)C[C@@H](C)C(=O)[C@H](C)[C@@H](O)[C@]1(C)O` (some centres unmarked) [Example 38, 4″-O-(3-{2-[2-(3-Carboxy-1-cyclopropyl-4-oxo-1,4-dihydro-quinolin-7-yloxy)-ethoxy]-ethoxy}-propionyl)-6-O-methyl-erythromycin A], the MIC in test [1] is not above 1 µg/mL; against S. pneumoniae 0541, not above 1 µg/mL; against S. pyogenes 0542 it was not above 1 µg/mL; against E. faecalis ATCC 0004 it was not above 1 µg/mL; against H. influenzae ATCC 0529 it was not above 2 µg/mL; in the test on M. catarrhalis ATCC 0324 it was not above 2 µg/mL.

For `CC[C@H]1OC(=O)[C@H](C)[C@@H](O[C@H]2C[C@@](C)(OC)[C@@H](OC(=O)CCNCCOCCOCC#Cc3ccc4c(c3)c(=O)c(C(=O)O)cn4CC)[C@H](C)O2)[C@H](C)[C@@H](O[C@@H]2O[C@H](C)C[C@H](N(C)C)[C@H]2O)[C@](C)(O)C[C@@H](C)CN(C)[C@H](C)[C@@H](O)[C@]1(C)O` [Example 62, 4″-O-[3-(2-{2-[3-(3-Carboxy-1-ethyl-4-oxo-1,4-dihydro-quinolin-6-yl)-prop-2-ynyloxy]-ethoxy}-ethylamino)-propionyl]-azithromycin], the MIC is not above 1 µg/mL in test [1]; not above 1 µg/mL against S. pneumoniae 0541; not above 1 µg/mL in the test with S. pyogenes 0542; not above 1 µg/mL against E. faecalis ATCC 0004; not above 2 µg/mL against H. influenzae ATCC 0529; not above 2 µg/mL against M. catarrhalis ATCC 0324.

With `CC[C@H]1OC(=O)[C@H](C)[C@@H](O[C@H]2C[C@@](C)(OC)[C@@H](OC(=O)CCN3CCN(CC#Cc4ccc5c(c4)c(=O)c(C(=O)O)cn5CC)CC3)[C@H](C)O2)[C@H](C)[C@@H](O[C@@H]2O[C@H](C)C[C@H](N(C)C)[C@H]2O)[C@](C)(O)C[C@@H](C)CN(C)[C@H](C)[C@@H](OC)[C@]1(C)O` [Example 4], the MIC in test [1] is not above 1 µg/mL; against S. pneumoniae 0541, not above 1 µg/mL; against S. pyogenes 0542, not above 1 µg/mL; with E. faecalis ATCC 0004, not above 1 µg/mL; with H. influenzae ATCC 0529, not above 2 µg/mL; against M. catarrhalis ATCC 0324, not above 2 µg/mL.

With `CC[C@H]1OC(=O)[C@H](C)[C@@H](O[C@H]2C[C@@](C)(OC)[C@@H](OC(=O)CCOCCOCCNc3cc4c(=O)c(C(=O)O)cn(C5CC5)c4cc3N(C)C)[C@H](C)O2)[C@H](C)[C@@H](OC2O[C@H](C)C[C@H](N(C)C)[C@H]2O)[C@](C)(O)C[C@@H](C)CN(C)[C@H](C)[C@@H](O)[C@]1(C)O` (some centres unmarked) [Example 48, 4″-O-(3-{2-[2-(3-Carboxy-1-cyclopropyl-7-dimethylamino-4-oxo-1,4-dihydro-quinolin-6-ylamino)-ethoxy]-ethoxy}-propionyl)azithromycin], the MIC is not above 1 µg/mL in test [1]; not above 1 µg/mL in the test on S. pneumoniae 0541; not above 1 µg/mL against S. pyogenes 0542; not above 1 µg/mL with E. faecalis ATCC 0004; not above 2 µg/mL against H. influenzae ATCC 0529; not above 2 µg/mL in the test on M. catarrhalis ATCC 0324.

Regarding `CC[C@H]1OC(=O)[C@H](C)[C@@H](O[C@H]2C[C@@](C)(OC)[C@@H](OC(=O)CCOCCOCCNc3cc4c(cc3F)c(=O)c(C(=O)O)cn4C3CC3)[C@H](C)O2)[C@H](C)[C@@H](O[C@@H]2O[C@H](C)C[C@H](N(C)C)[C@H]2O)[C@](C)(OC)C[C@@H](C)C(=O)[C@H](C)[C@@H](O)[C@]1(C)O` [Example 27, 4″-O-(3-{2-[2-(3-Carboxy-6-fluoro-1-cyclopropyl-4-oxo-1,4-dihydro-quinolin-7-ylamino)-ethoxy]-ethoxy}-propionyl)-6-O-methyl-erythromycin A], the MIC in test [1] was not above 1 µg/mL; in the test on S. pneumoniae 0541 it was not above 1 µg/mL; against S. pyogenes 0542 it was not above 1 µg/mL; against E. faecalis ATCC 0004, not above 1 µg/mL; in the test on H. influenzae ATCC 0529 it was not above 2 µg/mL; in the test on M. catarrhalis ATCC 0324, not above 2 µg/mL.

`CC[C@H]1OC(=O)[C@H](C)[C@@H](O[C@H]2C[C@@](C)(OC)[C@@H](OC(=O)CCOCCOCCNc3cc4c(=O)c(C(=O)O)cn(C5CC5)c4cc3Cl)[C@H](C)O2)[C@H](C)[C@@H](O[C@@H]2O[C@H](C)C[C@H](N(C)C)[C@H]2O)[C@](C)(OC)C[C@@H](C)C(=O)[C@H](C)[C@H]2NC(=O)O[C@@]21C` [Example 26, 4″-O-(3-{2-[2-(3-Carboxy-7-chloro-1-cyclopropyl-4-oxo-1,4-dihydro-quinolin-6-ylamino)-ethoxy]-ethoxy}-propionyl)-6-O-methyl-erythromycin A 11,12-cyclic carbamate]: the MIC in test [1] is not above 1 µg/mL; in the test on S. pneumoniae 0541 it was not above 1 µg/mL; against S. pyogenes 0542 it was not above 1 µg/mL; against E. faecalis ATCC 0004, not above 1 µg/mL; in the test with H. influenzae ATCC 0529 it was not above 2 µg/mL; against M. catarrhalis ATCC 0324, not above 2 µg/mL.

Turning to `CC[C@H]1OC(=O)[C@H](C)[C@@H](OC2C[C@@](C)(OC)[C@@H](OC(=O)CCNCCOCC#Cc3ccc4c(c3)c(=O)c(C(=O)O)cn4CC)[C@H](C)O2)[C@H](C)[C@@H](OC2O[C@H](C)C[C@H](N(C)C)[C@H]2O)[C@](C)(OC)C[C@@H](C)C(=O)[C@H](C)[C@@H](O)[C@]1(C)O` (some centres unmarked) [Example 36, 4″-O-(3-{2-[3-(3-carboxy-1-ethyl-4-oxo-1,4-dihydro-quinolin-6-yl)-prop-2-ynyloxy]-ethylamino}-propionyl)-6-O-methyl-erythromycin A], the MIC is not above 1 µg/mL in test [1]; not above 1 µg/mL against S. pneumoniae 0541; not above 1 µg/mL in the test on S. pyogenes 0542; not above 1 µg/mL against E. faecalis ATCC 0004; not above 2 µg/mL in the test with H. influenzae ATCC 0529; not above 2 µg/mL with M. catarrhalis ATCC 0324.

As to `CC[C@H]1OC(=O)[C@H](C)[C@@H](OC2C[C@@](C)(OC)[C@@H](OC(=O)CNC(=O)CCOCCNc3c(F)cc4c(=O)c(C(=O)O)cn(C5CC5)c4c3OC)[C@H](C)O2)[C@H](C)[C@@H](O[C@@H]2O[C@H](C)C[C@H](N(C)C)[C@H]2O)[C@](C)(O)C[C@@H](C)CN(C)[C@H](C)[C@@H]2OC(=O)O[C@]12C` (some centres unmarked) [Example 14, 4″-O-(2-{3-[2-(3-Carboxy-6-fluoro-1-cyclopropyl-8-methoxy-4-oxo-1,4-dihydro-quinolin-7-ylamino)-ethoxy]-propionylamino}-acetyl)-azithromycin 11,12-cyclic carbonate], the MIC in test [1] was not above 1 µg/mL; with S. pneumoniae 0541, not above 1 µg/mL; in the test with S. pyogenes 0542 it was not above 1 µg/mL; against E. faecalis ATCC 0004 it was not above 1 µg/mL; in the test on H. influenzae ATCC 0529 it was not above 2 µg/mL; in the test on M. catarrhalis ATCC 0324, not above 2 µg/mL.

For the compound `CC[C@H]1OC(=O)[C@H](C)[C@@H](O[C@H]2C[C@@](C)(OC)[C@@H](OC(=O)CCN3CCN(CCCc4ccc5c(c4)c(=O)c(C(=O)O)cn5CC)CC3)[C@H](C)O2)[C@H](C)[C@@H](O[C@@H]2O[C@H](C)C[C@H](N(C)C)[C@H]2O)[C@](C)(O)C[C@@H](C)CN(C)[C@H](C)[C@@H](OC)[C@]1(C)O` [Example 5], the MIC (in test [1]; in the test with S. pneumoniae 0541; in the test on S. pyogenes 0542; in the test on E. faecalis ATCC 0004) was not above 1 µg/mL in each case.

On to `CCOC(=O)c1cn(CC)c2ccc(C#CCN3CCN(CCC(=O)O[C@H]4[C@H](C)OC(O[C@H]5[C@H](C)[C@@H](OC6O[C@H](C)C[C@H](N(C)C)[C@H]6O)[C@](C)(OC)C[C@@H](C)C(=O)[C@H](C)[C@@H](O)[C@](C)(O)[C@@H](CC)OC(=O)[C@@H]5C)C[C@@]4(C)OC)CC3)cc2c1=O` (some centres unmarked) [Example 3, 4″-O-(3-{4-[3-(3-Ethoxycarbonyl-1-ethyl-4-oxo-1,4-dihydro-quinolin-6-yl)-prop-2-ynyl]-piperazin-1-yl}-propionyl)-6-O-methyl-erythromycin A], for which the MIC was not above 1 µg/mL in test [1]; not above 1 µg/mL in the test on S. pneumoniae 0541; not above 1 µg/mL against S. pyogenes 0542; not above 1 µg/mL with E. faecalis ATCC 0004; not above 2 µg/mL in the test on H. influenzae ATCC 0529; not above 2 µg/mL in the test with M. catarrhalis ATCC 0324.
